Test results reported in ChEMBL document CHEMBL2007661, “Compounds: GSK PKIS; Assays: UNC Frye lab” (2012).
Values joined by “and” are separate entries in the source; they are usually repeats but may differ in a detail not shown here. Identical values can stand only once.

Experiments:
[1] = biological target: T1, Inhibitor of nuclear factor kappa-B kinase subunit alpha (Homo sapiens) (UniProt O15111); conditions: at 1 µM
T1 sequence (whole entry): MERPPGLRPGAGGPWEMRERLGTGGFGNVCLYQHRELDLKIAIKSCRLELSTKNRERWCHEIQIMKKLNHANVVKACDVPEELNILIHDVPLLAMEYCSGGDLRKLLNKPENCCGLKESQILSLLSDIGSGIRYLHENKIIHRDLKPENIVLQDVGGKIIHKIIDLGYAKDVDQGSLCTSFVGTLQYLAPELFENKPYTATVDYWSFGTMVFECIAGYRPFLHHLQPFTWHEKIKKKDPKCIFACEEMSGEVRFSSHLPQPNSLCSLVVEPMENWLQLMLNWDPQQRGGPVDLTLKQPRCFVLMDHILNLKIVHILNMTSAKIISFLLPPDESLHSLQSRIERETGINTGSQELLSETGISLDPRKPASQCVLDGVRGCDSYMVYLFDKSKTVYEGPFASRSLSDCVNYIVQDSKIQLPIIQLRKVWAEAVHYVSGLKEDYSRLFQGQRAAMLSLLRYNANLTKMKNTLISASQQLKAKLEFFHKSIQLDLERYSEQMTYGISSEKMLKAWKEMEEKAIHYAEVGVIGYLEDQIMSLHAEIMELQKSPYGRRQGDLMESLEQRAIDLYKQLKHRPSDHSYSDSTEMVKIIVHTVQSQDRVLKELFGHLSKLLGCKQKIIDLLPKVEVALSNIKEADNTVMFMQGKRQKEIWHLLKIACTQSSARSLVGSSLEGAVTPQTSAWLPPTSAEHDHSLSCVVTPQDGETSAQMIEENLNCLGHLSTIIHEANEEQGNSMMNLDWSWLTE

[2] = biological target: T2, Inhibitor of nuclear factor kappa-B kinase subunit epsilon (Homo sapiens) (UniProt Q14164); conditions: at 1 µM
T2 sequence (whole entry): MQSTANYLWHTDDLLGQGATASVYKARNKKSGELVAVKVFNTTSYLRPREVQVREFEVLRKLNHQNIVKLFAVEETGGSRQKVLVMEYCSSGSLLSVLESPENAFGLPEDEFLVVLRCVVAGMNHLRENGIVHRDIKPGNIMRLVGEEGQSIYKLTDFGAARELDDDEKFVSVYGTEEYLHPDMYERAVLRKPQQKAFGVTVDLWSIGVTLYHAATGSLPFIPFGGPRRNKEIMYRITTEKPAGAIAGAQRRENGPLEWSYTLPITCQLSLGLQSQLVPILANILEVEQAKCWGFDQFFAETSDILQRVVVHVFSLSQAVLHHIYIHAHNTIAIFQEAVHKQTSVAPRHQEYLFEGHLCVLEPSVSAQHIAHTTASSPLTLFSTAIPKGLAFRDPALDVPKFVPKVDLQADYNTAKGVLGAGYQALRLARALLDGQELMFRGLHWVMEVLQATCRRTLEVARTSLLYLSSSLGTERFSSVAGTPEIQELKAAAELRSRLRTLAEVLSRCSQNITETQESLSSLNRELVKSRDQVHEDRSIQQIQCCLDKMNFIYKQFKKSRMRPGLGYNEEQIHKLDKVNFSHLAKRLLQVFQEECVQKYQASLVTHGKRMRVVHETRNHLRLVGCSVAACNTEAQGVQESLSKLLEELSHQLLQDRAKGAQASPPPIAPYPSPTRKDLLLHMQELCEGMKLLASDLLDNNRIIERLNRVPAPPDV

## CC1=C(C(=O)Nc2ccc3[nH]ncc3c2)C(c2ccc(F)cc2)N=C(c2ccc(C(F)(F)F)nc2)N1 (stereo unspecified)
[1]
  inhibition: -4%
[2]
  inhibition: 3% and 0%

## COc1cccc(-n2ncc3c(N/N=C/c4ccc(C)cc4)ncnc32)c1
[1]
  inhibition: 13%
[2]
  inhibition: 0%

## COc1cccc(-n2ncc3c(N/N=C/c4ccc(S(C)(=O)=O)cc4)ncnc32)c1
[1]
  inhibition: 3% and 2%
[2]
  inhibition: 3% and 0%
